Assay [1] is described as follows: Inhibition of platelet CRTAase assessed as inhibition of platelet aggregation at 50 uM by spectrophotometry.
The test system of assay [2] is Rattus norvegicus. Nature of the assay: Antiplatelet activity in arachidonic acid-induced platelet aggregation po dosed Sprague-Dawley rat blood compound treated for 24 hrs before ADP challenge by aggregometry method. It is filed as functional, organism-based.
Assay [3] relates to Rattus norvegicus. The assay can be described thus: Antiplatelet activity in ADP-induced platelet aggregation po dosed Sprague-Dawley rat blood compound treated for 24 hrs before ADP challenge by aggregometry method. It is filed as functional, organism-based.
In assay [4] the test system is Platelet. Nature of the assay: Enhancement of nitric oxide production in human platelet rich plasma at 100 uM preincubated for 10 mins before ADP addition by DCFH-DA-based flow cytometry. It is filed as functional, cell-free. (In general: A flow cytometer gives signals particle by particle.)
Assay [5] relates to Rattus norvegicus. The assay can be described thus: Inhibition of TxB2 production in arachidonic acid-stimulated blood of Sprague-Dawley rat assessed per mg of protein at 160.2 umol/kg, po, measured after 24 hrs by ELISA (reference value: 85.4 pg/mg of protein). The format is functional. (An ELISA detects its analyte on a solid surface through an enzyme-linked reagent.)
A further assay concerns PBMC. Nature of the assay: Inhibition of LPS-induced iNOS expression in Sprague-Dawley rat PBMC at 160.2 umol/kg, po for 5 days before LPS challenge by Western blot analysis. It is filed as functional, organism-based. (A western blot detects proteins with antibodies after separation by electrophoresis.)
For assay [6], the system named is Rattus norvegicus. The assay can be described thus: Inhibition of LPS-induced tissue factor expression in Sprague-Dawley rat PBMC at 160.2 umol/kg, po for 5 days by ELISA relative to control. The format is functional.
Assay [7] concerns Platelet. Nature of the assay: (§1) Antiplatelet activity in human platelet rich plasma assessed as inhibition of ADP-induced aggregation compound preincubated for 10 mins before ADP addition by aggregometry method. It is filed as functional, cell-free.
A short description of assay [8]: as §1. It is filed as functional, cell-free.
The test system of assay [9] is Platelet. The assay can be described thus: (§2) Antiplatelet activity in human platelet rich plasma assessed as inhibition of arachidonic acid-induced aggregation preincubated for 10 mins before arachidonic acid challenge by aggregometry method. The format is functional, cell-free.
Assay [10] is described as follows: as §2. The format is functional, cell-free.
For assay [11], the system named is Rattus norvegicus. The assay can be described thus: Inhibition of COX1 activity in TMPD/arachidonic acid-stimulated blood of Sprague-Dawley rat at 160.2 umol/kg, po after 24 hrs by ELISA relative to control. It is filed as functional.
The subject of assay [12] is Rattus norvegicus. Nature of the assay: Inhibition of ADP-induced platelet aggregation in Sprague-Dawley rat blood at 125.3 umol/kg, po treated for 24 hrs before ADP challenge by aggregometry method. The format is functional.
In assay [13] the test system is Rattus norvegicus. The assay can be described thus: Inhibition of arachidonic acid-induced aggregation in Sprague-Dawley rat blood at 50.6 umol/kg, po treated for 24 hrs before arachidonic acid challenge by aggregometry method. The format is functional.

Experimental findings from ChEMBL document CHEMBL1949529, “Substrate specificity of acetoxy derivatives of coumarins and quinolones towards Calreticulin mediated transacetylation: investigations on antiplatelet function” (Bioorg Med Chem, 2012) are described below.

Each structure is given as a SMILES string. Calls of active or inactive are those of the source. No cut-off for these calls is given here.

In general, inhibition in vivo refers to the change of the read-out against control, counted positive when it falls. Read a low inhibition in vivo as little suppression.

Consider `CC(=O)Nc1ccc2c(C)cc(=O)[nH]c2c1`, for which, in [1], the inhibition entry is “Active”.
Take `CC(=O)Nc1ccc2c(C)cc(=O)oc2c1`: the Activity entry in the assay with Rattus norvegicus [2] and in the assay on Rattus norvegicus [3] was “Dose-dependent effect” in each case. The results for the IC50 (with Rattus norvegicus [3]; in [8]; in assay [10]) were 125.3 µmol/kg, 145 µM and 77 µM, respectively. Further, in the assay with Platelet [4], the result was Active. In addition, the “fold change (FC)” value in the assay on Rattus norvegicus [5] worked out at 0.39; with Rattus norvegicus [6], 1.93; with Rattus norvegicus [11], 3.34. The inhibition entry (with PBMC; in [1]) was “Active” throughout. Further, the inhibition result in the assay with Platelet [7] and in the assay on Platelet [9] was “Dose-dependent effect” throughout.
Turning to `CCCCCCCCc1c(C)c2cc(OC(C)=O)ccc2[nH]c1=O`, in [1], the inhibition entry is “Active”.
For the molecule `CC(=O)Nc1ccc2c(C(F)(F)F)cc(=O)[nH]c2c1`, the inhibition entry in assay [1] is “Active”.
Still for that read-out and setting: the same measure for `CC(=O)Nc1ccc2c(C(F)(F)F)cc(=O)oc2c1`: “Active”; for `CC(=O)Oc1ccc2c(C)cc(=O)oc2c1C(C)=O`: “inactive”.
On the same count and under the same terms, the same measure for `CC(=O)Oc1cc2oc(=O)cc(C)c2cc1C(C)=O`: “inactive”; for `CCCCCCc1c(C)c2ccc(NC(C)=O)cc2oc1=O`: “Active”.
The same measure, in the same setting: the same measure for `CC(=O)Oc1ccc2[nH]c(=O)cc(C(F)(F)F)c2c1`: “Active”; for `CCCCCCCCCCc1c(C)c2cc(OC(C)=O)ccc2[nH]c1=O`: “Active”.
In the case of `CCc1c(C)c2cc(C(C)=O)c(OC(C)=O)cc2oc1=O`, the inhibition entry in assay [1] is “inactive”.
`CC(=O)Oc1ccccc1C(=O)O` [ASPIRIN]: the “fold change (FC)” value with Rattus norvegicus [5] is reported as 0.42; in the assay with Rattus norvegicus [6], 4.95. In the assay with Rattus norvegicus [12], this molecule gave an inhibition in vivo at 125.3 µmol/kg of 52%. Moreover, the inhibition result with PBMC was “inactive”. Further, the IC50 in assay [10] worked out at 80 µM. Also, the inhibition result with Rattus norvegicus [11] was “Active”. This molecule gave an inhibition in vivo at 50.6 µmol/kg with Rattus norvegicus [13] of 55%.
As for `CCCCc1c(C)c2cc(OC(C)=O)ccc2[nH]c1=O`, the inhibition entry in [1] is “Active”.
Take `CC(=O)Oc1ccc2c(C(F)(F)F)cc(=O)[nH]c2c1`: in assay [1], the inhibition entry was “Active”.
With `CCc1c(C)c2ccc(NC(C)=O)cc2[nH]c1=O`, the inhibition entry in assay [1] was “Active”.
Same read-out and setting: under `CCc1c(C)c2ccc(NC(C)=O)cc2oc1=O` stands “Active”; under `CCc1c(C)c2ccc(OC(C)=O)c(C(C)=O)c2oc1=O`, “inactive”.
On the same count and under the same terms, under `CCCCCCCCCCc1c(C)c2ccc(NC(C)=O)cc2oc1=O` stands “Active”.
